Assay results reported in article PMC8959960, “Inhibition of Aldose Reductase by Novel Phytocompounds: A Heuristic Approach to Treating Diabetic Retinopathy” (Evidence-based Complementary and Alternative Medicine : eCAM, 2022).

Columns and labels:
human lens ALR2 = target: T1, human lens ALR2 (Homo sapiens, UniProt P15121); assay: ALR2 inhibition in human lens samples (NADPH decrease at 340 nm); type: biochemical; details: crude ALR2 from diabetic human lens, DL-glyceraldehyde substrate, 37°C, pH 7.0; means ± SD, n = 3
T1 construct: Crude ALR2 enzyme extract was prepared by homogenizing from 100 mg of diabetic and nondiabetic human lenses; from tissue; host or cells: human lens (Rotary Aravind International Eye Bank)
Method: Hayman and Kinoshita method of crude ALR2 enzyme preparation was followed. Five diabetic and nondiabetic human lenses, aged 58 to 65 years, were obtained from the Rotary Aravind International Eye Bank, Aravind Eye Hospital, Madurai. […] The nondiabetic human lens was used as the control. The lens homogenate was centrifuged at 10,000 rpm for 30 minutes, and the resulting crude ALR2 enzyme preparation was used for analysis.
The 300 μl reaction mixture consisted of 100 mM sodium phosphate buffer adjusted to pH 7.0, 0.2 mM Li2SO4, 5 mM 2-mercaptoethanol, 0.15 mM NADPH, and 100 μg crude enzyme preparation, and the substrate DL-glyceraldehyde was added to initiate the reaction. ALR2 activity was assayed spectrophotometrically by measuring the decrease in the absorption of NADPH at 340 nm per unit time at 37°C and pH 7.0.
The percentage inhibition of ALR2 was calculated using the following formula:(3) % inhibition=ΔAbsorbance of sample/min−ΔAbsorbance blank/min/ΔAbsorbance of control/min−ΔAbsorbance blank/min×100.

ALR2 in ARPE-19 cells = target: T2, ALR2 in ARPE-19 cells (Homo sapiens, UniProt P15121); assay: Inhibition of ALR2 in ARPE-19 cells; type: cell-based; details: normoglycemic (5 mM glucose) ARPE-19 cells, 24 hr, each compound at its human lens IC50 concentration
T2 construct: The cell lysate was collected for analysis; endogenous in cells; host or cells: ARPE-19
Method: The cells were shifted to DMEM-low glucose with 10% FBS, 12 hr before the experiment. The cells were washed with PBS and incubated in FBS-free medium and 5 mM/25 mM (normoglycemic condition/hyperglycemic condition) glucose, for 24 hr, with or without the drug. Following the drug treatment, the cells were washed with ice cold PBS, trypsinized, and counted. Cells were resuspended in ALR assay buffer, homogenized for 30 seconds, and centrifuged at 10000 rpm for 30 minutes. The cell lysate was collected for analysis.
ALR2 inhibition protocol by Hayman and Kinoshita was followed.

ARPE-19 cells = assay: MTT cell toxicity assay; type: cell-based, human; details: 24 hr treatment
Method: The cell toxicity of the shortlisted ARIs was assessed using MTT assay kit (in vitro toxicological assay kit, Sigma, USA). ARPE-19 cells were grown to confluence in DMEM/F12 medium with 10% FBS, harvested by trypsinization, and plated at 1 × 10^4 cells per well in a 96-well plate. The medium was replaced with serum-free medium without FBS for 3 hr before the drug treatment. Following serum starvation, ARPE-19 cells were treated with different concentrations of the identified compounds. […] The cells were treated with the lead compounds for 24 hr to determine the cytotoxicity of the compounds. After incubation, the cells were treated with 20 μl of 5 mg/ml MTT and incubated for 3 hr at 37°C to determine the cell toxicity. The viable cells converted MTT into formazan crystals which were dissolved using solubilization solution (200 μl) and measured spectrophotometrically at 570 nm with subtraction of the reference wavelength, 650 nm, to eliminate the possibility of variations in the plate and the media present, using SpectraMax M3 multiplate reader (Molecular Devices, California, USA).

ALR2 = details: high glucose condition; cited from earlier work

COc1cc(O)c2c(=O)cc(-c3ccccc3)oc2c1OC [7-O-Methylwogonin]
IC50 (human lens ALR2): 0.108 µM | ALR2 inhibition (%) (ALR2 in ARPE-19 cells): 98%

O=C(OCC1=C[C@@H](O)[C@@H]2C=CO[C@@H](O[C@@H]3O[C@H](CO)[C@@H](O)[C@H](O)[C@H]3O)[C@H]12)c1ccc(O)cc1 [Agnuside]
IC50 (human lens ALR2): 0.0224 µM | ALR2 inhibition (%) (ALR2 in ARPE-19 cells): 100% | concentration below which no toxicity was shown (ARPE-19 cells): below 5 μM

CC(/C=C1\SC(=S)N(CC(=O)O)C1=O)=C\c1ccccc1 [Epalrestat, reference compound]
ALR2 inhibition (%) (ALR2 in ARPE-19 cells): 85% | concentration below which no toxicity was shown (ARPE-19 cells): below 5 μM | ALR2 inhibition (ALR2): 65%

COc1cc2oc(-c3ccc(O)cc3)c(O[C@@H]3O[C@H](CO)[C@H](O)[C@H](O)[C@H]3O)c(=O)c2c(O)c1OC [Eupalitin-3-O-galactoside]
IC50 (human lens ALR2): 0.0273 µM | ALR2 inhibition (%) (ALR2 in ARPE-19 cells): 65%

COc1cc(C(=O)O[C@H]2[C@@H]3C=CO[C@@H](O[C@@H]4O[C@H](CO)[C@@H](O)[C@H](O)[C@H]4O)[C@@H]3[C@@]3(CO)O[C@@H]23)ccc1O [Picroside II]
IC50 (human lens ALR2): 0.13 µM | ALR2 inhibition (%) (ALR2 in ARPE-19 cells): 71%
